# Results as given in US20260297060A1, “COMPOUNDS FOR THE DEGRADATION OF MUTANT BRAF” (C4 THERAPEUTICS, INC., priority 2023, published 2026).
# Where two headings read alike, the source gives them in different places.
# Biological target: T1, BRAF V600E (Homo sapiens, UniProt P15056+Q96SW2, V600E)
# T1 construct: knock-in of the HiBiT tag to the endogenous BRAF V600E locus; host or cells: A375.10 (A375 clonal line, CRISPR HiBiT knock-in at the endogenous BRAF V600E locus)
# Test: BRAF V600E HiBiT Degradation Assay
# Type: cell-based
# Outline: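 Endogenous HiBiT knock-in on BRAF V600E in A375 cells (clone A375.10); 11-point half-log series, top 10 μM, 2, 6 or 24 h at 37° C. Lytic HiBiT luminescence, background-subtracted, normalized to DMSO; 4-parameter fit gives DC50, Emax (residual protein) and IP (inflection point).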
# [1] = A375.10 cells, BRAF V600E, 2 hours, inflection point, read-out: HiBiT-Degradation A375.10 BRAF 2 hours IP
# [2] = A375.10 cells, BRAF V600E, 2 hours, read-out: HiBiT-Degradation A375.10 BRAF 2 hours DC50
# [3] = A375.10 cells, BRAF V600E, 6 hours, inflection point, read-out: HiBiT-Degradation A375.10 BRAF 6 hours IP
# [4] = A375.10 cells, BRAF V600E, 6 hours, read-out: HiBiT-Degradation A375.10 BRAF 6 hours DC50
# [5] = A375.10 cells, BRAF V600E, 6 hours, residual protein remaining, read-out: HiBiT-Degradation A375.10 BRAF 6 hours Emax
# [6] = A375.10 cells, HiBiT, BRAF V600E, 24 hours, read-out: HiBiT-Degradation A375.10 BRAF 24 hours DC50
# [7] = A375.10 cells, HiBiT, BRAF V600E, 24 hours, read-out: HiBiT-Degradation A375.10 BRAF 24 hours Emax
# [8] = A375.10 cells, HiBiT, BRAF V600E, 24 hours, read-out: HiBiT-Degradation A375.10 BRAF 24 hours IP
# [9] = read-out: HiBiT-Degradation A375.10 BRAF 2 hours Emax, A375.10 cells, BRAF V600E, 2 hours, residual protein remaining
# [10] = A375.10 cells, BRAF V600E, 2 hours, residual protein remaining, read-out: HiBiT-Degradation A375.10 BRAF 2 hours Emax
# T1 sequence (P15056 whole entry V600E): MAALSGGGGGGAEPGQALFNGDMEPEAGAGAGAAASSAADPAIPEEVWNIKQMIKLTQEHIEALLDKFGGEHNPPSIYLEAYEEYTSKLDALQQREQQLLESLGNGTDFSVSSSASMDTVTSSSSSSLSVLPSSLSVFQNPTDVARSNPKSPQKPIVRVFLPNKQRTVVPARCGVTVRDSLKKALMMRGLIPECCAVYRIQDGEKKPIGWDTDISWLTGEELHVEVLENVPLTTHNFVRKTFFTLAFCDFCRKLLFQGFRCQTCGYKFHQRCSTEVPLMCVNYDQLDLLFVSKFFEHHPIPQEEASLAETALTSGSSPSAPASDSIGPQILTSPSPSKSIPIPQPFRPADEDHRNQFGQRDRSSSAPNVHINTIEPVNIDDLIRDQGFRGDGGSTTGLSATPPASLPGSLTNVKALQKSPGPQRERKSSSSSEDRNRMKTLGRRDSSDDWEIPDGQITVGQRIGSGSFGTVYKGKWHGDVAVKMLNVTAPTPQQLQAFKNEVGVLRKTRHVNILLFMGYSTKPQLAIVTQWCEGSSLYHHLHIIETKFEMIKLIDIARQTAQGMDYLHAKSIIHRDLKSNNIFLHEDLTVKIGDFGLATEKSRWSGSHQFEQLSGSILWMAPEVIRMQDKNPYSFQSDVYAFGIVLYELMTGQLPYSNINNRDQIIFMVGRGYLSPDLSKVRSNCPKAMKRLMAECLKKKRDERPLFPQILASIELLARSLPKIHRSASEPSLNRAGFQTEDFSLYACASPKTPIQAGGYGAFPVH
# T1 sequence (Q96SW2 whole entry): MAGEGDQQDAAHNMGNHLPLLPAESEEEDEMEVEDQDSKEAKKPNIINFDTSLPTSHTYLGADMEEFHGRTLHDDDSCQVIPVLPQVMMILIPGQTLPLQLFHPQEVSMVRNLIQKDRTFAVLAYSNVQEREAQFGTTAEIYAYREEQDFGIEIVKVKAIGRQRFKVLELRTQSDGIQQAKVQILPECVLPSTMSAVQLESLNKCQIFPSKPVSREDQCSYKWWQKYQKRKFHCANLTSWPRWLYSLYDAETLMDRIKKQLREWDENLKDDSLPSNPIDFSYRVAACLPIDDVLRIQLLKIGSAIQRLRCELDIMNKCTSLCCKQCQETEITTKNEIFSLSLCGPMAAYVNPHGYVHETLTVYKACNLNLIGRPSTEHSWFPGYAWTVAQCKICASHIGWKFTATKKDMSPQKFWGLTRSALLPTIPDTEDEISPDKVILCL
# T1 sequence (Q16531 whole entry partner): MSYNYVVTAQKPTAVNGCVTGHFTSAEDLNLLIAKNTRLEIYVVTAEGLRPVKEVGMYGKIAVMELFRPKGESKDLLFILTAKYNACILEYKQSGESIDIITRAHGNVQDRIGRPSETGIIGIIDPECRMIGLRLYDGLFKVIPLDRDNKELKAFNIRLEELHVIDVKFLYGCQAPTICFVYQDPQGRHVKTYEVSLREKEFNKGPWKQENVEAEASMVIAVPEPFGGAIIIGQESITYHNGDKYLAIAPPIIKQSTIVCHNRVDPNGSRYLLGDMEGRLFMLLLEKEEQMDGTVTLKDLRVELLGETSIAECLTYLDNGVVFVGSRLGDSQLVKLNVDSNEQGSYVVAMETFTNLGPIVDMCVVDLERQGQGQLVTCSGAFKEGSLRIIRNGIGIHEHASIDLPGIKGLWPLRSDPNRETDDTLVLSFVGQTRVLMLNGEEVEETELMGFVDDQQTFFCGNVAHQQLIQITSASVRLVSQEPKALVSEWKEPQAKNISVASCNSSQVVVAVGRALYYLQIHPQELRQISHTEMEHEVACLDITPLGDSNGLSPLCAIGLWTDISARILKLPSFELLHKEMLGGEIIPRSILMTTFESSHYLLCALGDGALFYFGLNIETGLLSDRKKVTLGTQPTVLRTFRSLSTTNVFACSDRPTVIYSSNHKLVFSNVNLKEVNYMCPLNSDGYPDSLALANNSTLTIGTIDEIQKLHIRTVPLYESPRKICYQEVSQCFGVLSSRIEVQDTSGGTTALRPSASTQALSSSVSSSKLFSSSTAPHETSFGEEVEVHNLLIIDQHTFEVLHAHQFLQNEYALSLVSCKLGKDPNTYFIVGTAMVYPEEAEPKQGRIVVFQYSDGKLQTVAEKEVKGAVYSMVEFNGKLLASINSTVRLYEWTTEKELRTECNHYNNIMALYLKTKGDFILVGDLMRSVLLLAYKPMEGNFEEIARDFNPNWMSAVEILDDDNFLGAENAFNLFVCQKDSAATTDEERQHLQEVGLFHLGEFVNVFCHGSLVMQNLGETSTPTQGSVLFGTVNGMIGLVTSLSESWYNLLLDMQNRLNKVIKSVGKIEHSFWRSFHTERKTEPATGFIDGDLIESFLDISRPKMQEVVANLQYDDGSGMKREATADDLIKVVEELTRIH
SMILES,DC50 [1],DC50 [2],DC50 [3],DC50 [4],Emax [5],DC50 [6],Emax [7],DC50 [8],Emax [9],Emax [10],HiBiT-Degradation A375.10 BRAF 2 hours Emax,"HiBiT-Degradation A375.10 BRAF 24 hours Emax (A375.10 cells, HiBiT, BRAF V600E, 24 hours)"
"CN(CCO)S(=O)(=O)Nc1ccc(F)c(Oc2ccc3ncn(C4CC5(CCN(C6CCC(c7cc8c(cc7F)c(N7CCC(=O)NC7=O)nn8C)CC6F)CC5)C4)c(=O)c3c2)c1C#N (single isomer, unassigned) [Compound 145, 6-[2-cyano-6-fluoro-3-[[2-hydroxyethyl(methyl)sulfamoyl]amino]phenoxy]-3-[7-[4-[3-(2,4-dioxohexahydropyrimidin-1-yl)-5-fluoro-1-methyl-indazol-6-yl]-2-fluoro-cyclohexyl]-7-azaspiro[3.5]nonan-2-yl]-4-oxo-quinazoline]",< 1 µM,< 1 µM,< 1 µM,< 1 µM,< 50%,< 1 µM,< 50%,< 1 µM,< 50%,–,–,–
"CCN(C)S(=O)(=O)Nc1ccc(F)c(Oc2ccc3ncc([C@H]4COC5(CCN(C6CCC(c7cc8c(cc7F)c(N7CCC(=O)NC7=O)nn8C)CC6F)CC5)C4)nc3c2)c1C#N (single isomer, unassigned) [Compound 160]",< 1 µM,< 1 µM,–,–,–,–,–,–,< 50%,–,–,–
"CCN(C)S(=O)(=O)Nc1ccc(F)c(Oc2ccc3ncn(C4CC5(CCN(C6CCC(c7cc8c(cc7F)c(N7CCC(=O)NC7=O)nn8C)CC6)CC5)C4)c(=O)c3c2)c1F (single isomer, unassigned) [Compound 178, 3-[7-[4-[3-(2,4-dioxohexahydropyrimidin-1-yl)-5-fluoro-1-methyl-indazol-6-yl]cyclohexyl]-7-azaspiro[3.5]nonan-2-yl]-6-[3-[[ethyl(methyl)sulfamoyl]amino]-2,6-difluoro-phenoxy]-4-oxo-quinazoline]",< 1 µM,< 1 µM,< 1 µM,< 1 µM,< 50%,< 1 µM,< 50%,< 1 µM,–,< 50%,–,–
"CCN(C)S(=O)(=O)Nc1ccc(F)c(Oc2ccc3ncn([C@H]4COC5(CCN(C6CC7(C6)CN(c6cc8c(cc6F)c(N6CCC(=O)NC6=O)nn8C)C7)CC5)C4)c(=O)c3c2)c1C#N [Compound 26, (3R)-3-[6-[2-cyano-3-[[ethyl(methyl)sulfamoyl]amino]-6-fluoro-phenoxy]-4-oxo-quinazolin-3-yl]-8-[2-[3-(2,4-dioxohexahydropyrimidin-1-yl)-5-fluoro-1-methyl-indazol-6-yl]-2-azaspiro[3.3]heptan-6-yl]-1-oxa-8-azaspiro[4.5]decane]",< 1 µM,< 1 µM,< 1 µM,< 1 µM,< 50%,< 1 µM,< 50%,< 1 µM,< 50%,–,–,–
"CCN(C)S(=O)(=O)Nc1ccc(F)c(Oc2ccc3ncn([C@H]4COC5(CCC(N6CC7(CN(c8cc9c(cc8F)c(N8CCC(=O)NC8=O)nn9C)C7)C6)CC5)C4)c(=O)c3c2)c1C#N (stereo partly drawn) [Compound 27, 6-[2-cyano-3-[[ethyl(methyl)sulfamoyl]amino]-6-fluoro-phenoxy]-3-[(3R)-8-[6-[3-(2,4-dioxohexahydropyrimidin-1-yl)-5-fluoro-1-methyl-indazol-6-yl]-2,6-diazaspiro[3.3]heptan-2-yl]-1-oxaspiro[4.5]decan-3-yl]-4-oxo-quinazoline]",< 1 µM,< 1 µM,< 1 µM,< 1 µM,< 50%,< 1 µM,< 50%,< 1 µM,–,< 50%,–,–

# The remaining lines, values ahead:
DC50 [1],DC50 [2],DC50 [3],DC50 [4],Emax [5],DC50 [6],Emax [7],DC50 [8],Emax [9],Emax [10],HiBiT-Degradation A375.10 BRAF 2 hours Emax,"HiBiT-Degradation A375.10 BRAF 24 hours Emax (A375.10 cells, HiBiT, BRAF V600E, 24 hours)",SMILES
< 1 µM,< 1 µM,< 1 µM,< 1 µM,< 50%,< 1 µM,< 50%,< 1 µM,< 50%,–,–,–,"CCN(C)S(=O)(=O)Nc1ccc(F)c(Oc2ccc3ncc(C4CC5(CCN(C6CCC(c7cc8c(cc7F)c(N7CCC(=O)NC7=O)nn8C)CC6)CC5)C4)nc3c2)c1C#N (single isomer, unassigned) [Compound 180, 7-[2-cyano-3-[[ethyl(methyl)sulfamoyl]amino]-6-fluoro-phenoxy]-2-[7-[4-[3-(2,4-dioxohexahydropyrimidin-1-yl)-5-fluoro-1-methyl-indazol-6-yl]cyclohexyl]-7-azaspiro[3.5]nonan-2-yl]quinoxaline]"
< 1 µM,1 to 10 µM,< 1 µM,< 1 µM,< 50%,< 1 µM,< 50%,< 1 µM,–,50 to 90%,–,–,"CCN(C)S(=O)(=O)Nc1ccc(F)c(C(=O)c2ccc3ncn(C4CC5(CCN(C6CCC(c7cc8c(cc7F)c(N7CCC(=O)NC7=O)nn8C)CC6)CC5)C4)c(=O)c3c2)c1F (single isomer, unassigned) [Compound 182, 3-[7-[4-[3-(2,4-dioxohexahydropyrimidin-1-yl)-5-fluoro-1-methyl-indazol-6-yl]cyclohexyl]-7-azaspiro[3.5]nonan-2-yl]-6-[3-[[ethyl(methyl)sulfamoyl]amino]-2,6-difluoro-benzoyl]-4-oxo-quinazoline]"
< 1 µM,< 1 µM,< 1 µM,< 1 µM,< 50%,< 1 µM,< 50%,< 1 µM,–,< 50%,–,–,"CCN(C)S(=O)(=O)Nc1ccc(F)c(Oc2ccc3ncn(C4CC5(CCN(C6CCC(c7cc8c(cc7F)c(N7CCC(=O)NC7=O)nn8C)CC6F)CC5)C4)c(=O)c3c2)c1F (single isomer, unassigned) [Compound 184]"
< 1 µM,< 1 µM,–,–,–,< 1 µM,–,< 1 µM,–,–,*** (<=50%),*** (<=50%),"CCN(C)S(=O)(=O)Nc1ccc(F)c(Oc2ccc3ncn(C4CC5(C4)CN(C4CCC(c6cc7c(cc6F)c(N6CCC(=O)NC6=O)nn7C)CC4)C5)c(=O)c3c2)c1C#N (single isomer, unassigned) [Compound 204, 6-[2-cyano-3-[[ethyl(methyl)sulfamoyl]amino]-6-fluoro-phenoxy]-3-[2-[4-[3-(2,4-dioxohexahydropyrimidin-1-yl)-5-fluoro-1-methyl-indazol-6-yl]cyclohexyl]-2-azaspiro[3.3]heptan-6-yl]-4-oxo-quinazoline]"
< 1 µM,< 1 µM,–,–,–,< 1 µM,< 50%,< 1 µM,< 50%,–,–,–,"CCN(C)S(=O)(=O)Nc1ccc(F)c(Oc2ccc3ncc(OC4CC5(CCN(C6CCC(c7cc8c(cc7F)c(N7CCC(=O)NC7=O)nn8C)CC6)CC5)C4)nc3c2)c1C#N (single isomer, unassigned) [Compound 218, 7-[2-cyano-3-[[ethyl(methyl)sulfamoyl]amino]-6-fluoro-phenoxy]-2-[[7-[4-[3-(2,4-dioxohexahydropyrimidin-1-yl)-5-fluoro-1-methyl-indazol-6-yl]cyclohexyl]-7-azaspiro[3.5]nonan-2-yl]oxy]quinoxaline]"
